Patent EP0891772A2, “Therapeutic agent for rheumatic disease comprising nonsteroidal anti-inflamatory drug and phenylpropionic acid derivative” (SANTEN PHARMACEUTICAL CO., LTD., priority 1997, dated 1999)

Legend:
[1] = system: type II collagen-induced arthritis; assay: type II collagen-induced arthritis model; type: in vivo, DBA/1 strain mouse; conditions: for bone destruction score: 26th day after the secondary sensitization
Protocol: A solution (4 mg/ml) of bovine joint cartilage type II collagen in diluted hydrochloric acid was mixed with Freund' s complete adjuvant of the same volume to prepare an emulsion. As a primary sensitization, this emulsion was injected intra-dermally into tail root site of DBA/1 strain mouse at a dose of 100 µl (corresponding to 200 µg of the type II collagen per mouse). After 21 days from the primary sensitization, 100 µl of this emulsion was injected intra-dermally into a tail root site of the mouse again (secondary sensitization). […] 5% carboxymethyl cellulose and a nonsteroidal anti-inflammatory drug was suspended in 1% methyl cellulose. With regard to the confirmation of onset of arthritis, the stage where swelling at the site of joint accompanied by erythema was defined as the onset of arthritis. With regard to degree of the arthritis, scoring was conducted for each paw according to the evaluating criterion for arthritis grade as mentioned below and the total point for four paws was used as an arthritic score. • 0: no change • 1: weak swelling and weak erythema were observed • 2: weak swelling and erythema were observed • 3: strong swelling and erythema were observed • 4: strong swelling and erythema accompanied by bone erosion were observed Then, on the 26th day after the secondary sensitization, X-ray photographs of the joints of four paws were taken.

[2] = system: adjuvant-induced arthritis; assay: adjuvant-induced arthritis model; type: in vivo, rat
Protocol: A suspension (0.6 mg/100 µl) of Mycobacterium butyricum (adjuvant) in liquid paraffin was injected subcutaneously into a left hind paw of rat (male; nine weeks age; body weight being about 240 grams) to induce arthritis.
Incidentally, as a control, a suspension not containing a test compound was administered by the same manner as above.

[3] = system: hepatic allotransplantation; conditions: rats; Surg. Today, 26, 419-426(1996); cited from earlier work
[4] = diclofenac sodium alone 3 mg/kg, oral once a day
[5] = present compound alone 100 mg/kg, oral once a day

SMILES	arthritic score [1, 4]	effect of delaying the onset of arthritis [1, 4]	bone destruction score ([1]; diclofenac sodium alone 3 mg/kg)	arthritic score [1, 5]	incidence of arthritis [1, 5]	bone destruction score ([1]; present compound alone 100 mg/kg)	incidence of arthritis ([1]; present compound alone 200 mg/kg, oral once a day, tendency = nearly as control, as at 100 mg/kg)	arthritic score ([1]; present compound alone 200 mg/kg, oral once a day, tendency = slight improvement as at 100 mg/kg)	bone destruction score ([1]; present compound alone 200 mg/kg)	pathohistological test: bone destruction, edema, etc. ([2]; present compound alone)	edema of left hindpaw (paw volume) ([2]; present compound alone 100 mg/kg, oral once a day from the 14th day after adjuvant)	immunosuppressive action to hepatic allotransplantation [3]
O=C(O)Cc1ccccc1Nc1c(Cl)cccc1Cl [diclofenac sodium, reference compound]	improvement in the arthritic score was recognized	no effect of delaying the onset of arthritis was recognized	a suppressive effect was recognized but the instant effect was far weaker than in the case of the combination administration	–	–	–	–	–	–	–	–	–
COc1ccc(/C=C/CCCCOc2cccc(OCCCCC(=O)O)c2CCC(=O)O)cc1 [the present compound, 3-[1-[6-(4-methoxyphenyl)hex-5E-enyl]oxy-3-(4-carboxylbutyl)oxybenzen-2-yl]propionic acid]	–	–	–	improvement was recognized slightly	nearly the same proceeding as in the control group	no suppressive effect was recognized at all	Such a tendency was unchanged	Such a tendency was unchanged	the suppressive effect was hardly recognized	nearly no suppressive effect	nearly no suppressive effect on edema was recognized	shows an immunosuppressive action
